From patent publication US20060199856A1, “Novel compounds as anti-inflammatory, immunomodulatory and anti-proliferatory agents” (4 SC AG, priority 2001, published 2006) come the findings set out here.

In assay [1] the target is T1, recombinant human DHODH (Homo sapiens, UniProt Q02127).
T1 construct: provided by Prof; M. Löffler, Marburg, Germany (gift, not purchased)
In words: Inhibition assay of DHODH activity (human enzyme). The assay is classed as biochemical. The protocol: (§1) The standard assay mixture contained 50 μM decyclo ubichinone, 100 μM dihydroorotate, 60 μM 2,6-dichloroindophenol, as well as 20 mU DHODH. The volume activity of the recombinant enzyme used was 30 U/ml. Measurements were conducted in 50 mM TrisHCl (150 mM KCl, 0,1% Triton X-100, pH. 8,0) at 30° C. in a final volume of 1 ml. The components were mixed, and the reaction was started by adding dihydroorotate. The course of reaction was followed by spectrophotometrically measuring the decrease in absorption at 600 nm for 2 min.
(§2) Inhibitory studies were conducted in a standard assay with additional variable amounts of inhibitor.
(§3) These investigations were carried out with recombinant human as well as with recombinant murine DHODH provided by Prof. M. Löffler, Marburg, Germany [M. Löffler, Chem. Biol. Interact.

Assay [2] concerns the target T2, recombinant murine DHODH (Mus musculus, UniProt O35435).
T2 construct: provided by Prof; M. Löffler, Marburg, Germany (gift, not purchased)
In words: Inhibition assay of DHODH activity (murine enzyme). Type of assay: biochemical. As for the experimental part: as §1, §2, §3

Assay [3] deals with human lymphocyte cell proliferation. The experiment in a line: Proliferation Assay of Human T-Cells. Type of assay: cell-based. Particulars: 100 μM, activated human MNC, 48 hours. The protocol:
Buffy coats of healthy donors were obtained from the local Red Cross; from these human mononuclear cells (MNC) were isolated using Accuspin™ System-Histopaque-1077 (Sigma) according to the protocol recommended by the manufacturer. Cells were seeded at densities of 5×10^4 or 1×10^5 cells per well in 96 well flat bottom plates in RPMI 1640 supplemented with 10% fetal calf serum, 2 mM L-glutamine and penicillin/streptomycin. Cells were activated with 1 μg/ml phytohaemagglutinin (PHA, Sigma) or 20 nM PMA (phorbol-12-myristate-13-acetate)/10 μM ionomycin (Calbiochem) and incubated with the test compounds in a final volume of 100 μl for 48 hours. Proliferation was measured using the CellTiter 96® Aqueous One Solution Cell Proliferation Assay (Promega) according to the lymphocyte assay protocol supplied by the manufacturer.

Assay [4] deals with DHODH (Rattus norvegicus, UniProt Q63707). The experiment in a line: Inhibition assay of DHODH activity (rat enzyme, head printed 'rate'). The assay is classed as biochemical. Conditions: class symbols (in nM); read-out: rate IC50-Value. The protocol:
as §1, §2

Setting [5] is: recombinant human DHODH, numeric values, read-out: human IC50-Value.

pIC50: −log10 of the molar value. Where two headings read alike, the source gives them in different places. Bounds are passed on as bounds.

T2 sequence (O35435 whole entry): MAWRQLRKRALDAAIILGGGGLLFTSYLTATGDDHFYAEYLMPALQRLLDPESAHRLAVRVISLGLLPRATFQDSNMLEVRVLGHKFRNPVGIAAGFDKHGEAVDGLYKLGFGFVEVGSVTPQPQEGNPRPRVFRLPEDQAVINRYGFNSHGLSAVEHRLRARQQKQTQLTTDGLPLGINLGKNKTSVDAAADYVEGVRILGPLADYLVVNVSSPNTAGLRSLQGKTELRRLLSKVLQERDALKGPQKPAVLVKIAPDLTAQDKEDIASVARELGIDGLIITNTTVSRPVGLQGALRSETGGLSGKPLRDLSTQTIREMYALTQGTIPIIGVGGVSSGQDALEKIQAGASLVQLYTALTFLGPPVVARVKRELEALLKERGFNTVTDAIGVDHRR
T1 sequence (Q02127 whole entry): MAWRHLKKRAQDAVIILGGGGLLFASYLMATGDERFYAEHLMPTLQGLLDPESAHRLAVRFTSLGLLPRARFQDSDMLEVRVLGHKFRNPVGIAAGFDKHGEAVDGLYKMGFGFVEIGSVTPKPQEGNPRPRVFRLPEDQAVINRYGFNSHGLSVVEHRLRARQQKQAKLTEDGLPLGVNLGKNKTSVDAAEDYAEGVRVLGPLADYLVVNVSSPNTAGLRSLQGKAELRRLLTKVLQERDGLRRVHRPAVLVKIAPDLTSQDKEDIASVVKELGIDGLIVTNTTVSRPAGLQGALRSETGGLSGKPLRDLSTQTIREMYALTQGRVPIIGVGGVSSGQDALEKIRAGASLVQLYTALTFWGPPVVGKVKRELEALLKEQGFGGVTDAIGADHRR
DHODH, sequence (Q63707 whole entry): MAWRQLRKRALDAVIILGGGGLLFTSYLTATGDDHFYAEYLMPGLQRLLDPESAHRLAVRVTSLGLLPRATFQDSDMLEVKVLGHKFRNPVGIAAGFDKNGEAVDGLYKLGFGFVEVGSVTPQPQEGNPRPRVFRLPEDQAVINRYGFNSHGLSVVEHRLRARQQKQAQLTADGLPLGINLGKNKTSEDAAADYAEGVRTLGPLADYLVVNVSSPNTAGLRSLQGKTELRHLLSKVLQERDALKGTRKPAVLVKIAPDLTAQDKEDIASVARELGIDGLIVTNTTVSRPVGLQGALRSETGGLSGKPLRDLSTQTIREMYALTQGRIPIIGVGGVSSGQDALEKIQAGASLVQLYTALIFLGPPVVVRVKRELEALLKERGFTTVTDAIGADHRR

By pIC50 is commonly meant −log10 of the IC50, conventionally taken in molar units. `O=C(O)C1=C(C(=O)Nc2ccc(-c3ccccc3)cc2)CCC1` [Compound 02, 2-(Biphenyl-4-ylcarbamoyl)-cyclopent-1-enecarboxylic acid]: the pIC50 in assay [1] is 6.16; in assay [2] (numeric values or words), 5.40. Moreover, the “reduction of human lymphocyte cell proliferation” value in assay [3] stood at 40%.

The term IC50 denotes the concentration that inhibits the measured activity by half. Turning to `COc1ccccc1-c1ccc(OC(=O)C2=C(C(=O)O)CCC2)c(F)c1` [Compound 76], the IC50 in assay [1] (recombinant human DHODH, class symbols (in nM), read-out: human IC50-Value) was less than 800 nM; in assay [2] (class symbols (in nM)), 800 to 1500 nM; in assay [4], less than 800 nM.

For the compound `COc1ccc(Nc2ccc(NC(=O)C3=C(C(=O)O)CCC3)cc2)cc1` [Compound 04], in assay [1] (setting [5]), the pIC50 is 6.00. Besides, the “murine IC50-Value” in assay [2] (numeric values or words) was “weakly active”.

Turning to `O=C(O)C1=C(C(=O)Nc2ccc(OCc3ccccc3)cc2)CCC1` [Compound 01, 2-(4-Benzyloxy-phenylcarbamoyl)-cyclopent-l-enecarboxylic acid], the pIC50 in assay [1] (setting [5]) is 6.46; in assay [2] (numeric values or words), 5.09.
